Entries after “also recorded” stand apart in the source; their conditions may differ.
Legend:
[1] = after administration of 6.4 mg/kg dose; cited from earlier work
LRP1 [2] = assay: RT-PCR of LRP1 mRNA in bEnd3 cells; format: cell-based, mouse; conditions: 50 µM, 72 h, vs control
cognitive decline = conditions: mild to moderate AD patients, 3-month course of 300 mg/day; cited from earlier work
MDR1 = conditions: bEnd3 cells, 50 µM, 72 h, vs control
P-gp [3] = conditions: bEnd3 cells, 50 µM, 72 h, vs control (DMSO)
LRP1 [4] = assay: Western blot of LRP1 protein in bEnd3 cells after drug treatment; conditions: 50 µM, 72 h, vs control (DMSO)
[5] = Drug concentration in plasma and brain homogenate; format: in vivo, C57BL/6 wild-type male mice; conditions: for concentration at 3 h: brain homogenate
P-gp [6] = molecular target: P-gp (Mus musculus, UniProt P21447); assay: BEI% of 125I-Aβ40 with P-gp inhibition by intracerebral valspodar; format: in vivo, C57BL/6 mice; conditions: for BEI% of 125I-Aβ40 after valspodar pretreatment: valspodar 24 ng/0.5 µl
P-gp (Mus musculus, UniProt P21447), sequence (P21447 whole entry): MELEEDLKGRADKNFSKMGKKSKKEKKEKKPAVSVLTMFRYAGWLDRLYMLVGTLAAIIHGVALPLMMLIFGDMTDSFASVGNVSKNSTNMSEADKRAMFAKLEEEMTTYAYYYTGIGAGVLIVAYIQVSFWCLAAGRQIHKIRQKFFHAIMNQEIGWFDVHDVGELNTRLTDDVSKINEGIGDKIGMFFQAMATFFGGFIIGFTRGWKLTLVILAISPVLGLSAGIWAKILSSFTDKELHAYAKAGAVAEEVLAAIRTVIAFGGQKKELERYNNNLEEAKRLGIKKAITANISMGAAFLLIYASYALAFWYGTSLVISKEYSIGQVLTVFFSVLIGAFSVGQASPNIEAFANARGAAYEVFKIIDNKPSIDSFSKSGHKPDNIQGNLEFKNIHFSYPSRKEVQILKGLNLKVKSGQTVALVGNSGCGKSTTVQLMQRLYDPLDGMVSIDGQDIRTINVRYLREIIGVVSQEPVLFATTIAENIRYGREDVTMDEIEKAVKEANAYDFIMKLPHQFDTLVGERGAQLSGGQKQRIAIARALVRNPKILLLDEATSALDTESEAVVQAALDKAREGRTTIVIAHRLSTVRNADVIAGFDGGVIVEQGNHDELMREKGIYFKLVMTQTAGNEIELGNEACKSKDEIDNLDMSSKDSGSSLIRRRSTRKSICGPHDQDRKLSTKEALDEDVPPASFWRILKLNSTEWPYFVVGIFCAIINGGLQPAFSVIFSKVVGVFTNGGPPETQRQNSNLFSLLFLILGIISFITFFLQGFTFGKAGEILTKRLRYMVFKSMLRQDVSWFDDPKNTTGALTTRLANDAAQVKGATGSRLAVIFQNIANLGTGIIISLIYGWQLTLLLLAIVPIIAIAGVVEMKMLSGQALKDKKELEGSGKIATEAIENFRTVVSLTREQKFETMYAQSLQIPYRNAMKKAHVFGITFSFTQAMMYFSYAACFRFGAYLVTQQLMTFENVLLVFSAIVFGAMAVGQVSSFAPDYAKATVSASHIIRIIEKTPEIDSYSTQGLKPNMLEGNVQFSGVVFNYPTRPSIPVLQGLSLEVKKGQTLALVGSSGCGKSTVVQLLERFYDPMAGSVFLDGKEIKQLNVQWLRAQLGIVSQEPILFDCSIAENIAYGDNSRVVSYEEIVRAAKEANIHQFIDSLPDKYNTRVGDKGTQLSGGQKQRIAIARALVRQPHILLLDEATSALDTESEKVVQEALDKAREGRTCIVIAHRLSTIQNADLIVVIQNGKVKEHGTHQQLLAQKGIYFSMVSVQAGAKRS

MRP1 = assay: Western blot of MRP1 in brain homogenate; format: in vivo, C57BL/6 wild-type mice; conditions: treated mice vs control
LRP1 [7] = assay: Immunofluorescence staining of LRP1 in isolated brain microvessels; set-up: species or system C57BL/6 wild-type mice; conditions: mouse, in vivo
P-gp [8] = assay: Immunofluorescence staining of P-gp in isolated brain microvessels; set-up: species or system C57BL/6 wild-type mice; conditions: mouse, in vivo
[9] = cited from earlier work
[10] = Body weight during in vivo treatment; set-up: species or system C57BL/6 wild-type male mice; conditions: caffeine 40 mg/kg ip once daily, treatment limited to 2 weeks
RAGE = assay: Western blot of RAGE in isolated brain microvessels; format: in vivo, C57BL/6 wild-type mice; conditions: treated mice vs control
LRP1 [11] = molecular target: LRP1 (Mus musculus, UniProt Q91ZX7); assay: BEI% of 125I-Aβ40 with LRP1 inhibition by intracerebral RAP; format: in vivo, C57BL/6 mice; conditions: for BEI% of 125I-Aβ40 after RAP pretreatment: RAP 19.5 ng/0.5 µl

## CO[C@H]1/C=C/O[C@@]2(C)Oc3c(C)c(O)c4c(O)c(c(/C=N/N5CCN(C)CC5)c(O)c4c3C2=O)NC(=O)/C(C)=C\C=C\[C@H](C)[C@H](O)[C@@H](C)[C@@H](O)[C@@H](C)[C@H](OC(C)=O)[C@@H]1C [Rifampicin]
[1]
  free (unbound) plasma level in humans: 1.08 µg/mL
LRP1 [2]
  increase in mRNA level of LRP1 (RT-PCR): 1.4 fold
Cognitive decline
  effect on rate of cognitive decline: attenuated the rate of cognitive decline
MDR1
  increase in mRNA of MDR1 (RT-PCR): 1.5 fold
P-gp [3]
  increase in P-gp level (densitometric analysis of western blot): 1.45 fold
LRP1 [4]
  increase in LRP1 level (densitometric analysis of western blot): 1.2 fold
[5]; male, C57BL/6, mouse, ip
  concentration at 3 h: 150 ± 80 ng/mL

## C/C=C/C[C@@H](C)C(=O)[C@H]1C(=O)N[C@@H](C(C)C)C(=O)N(C)CC(=O)N(C)[C@@H](CC(C)C)C(=O)N[C@@H](C(C)C)C(=O)N(C)[C@@H](CC(C)C)C(=O)N[C@@H](C)C(=O)N[C@H](C)C(=O)N(C)[C@@H](CC(C)C)C(=O)N(C)[C@@H](CC(C)C)C(=O)N(C)[C@@H](C(C)C)C(=O)N1C [Valspodar]
P-gp [6]; caffeine-treated mice
  reduction in BEI% values by valspodar: ~32%
P-gp [6]; caffeine-treated mice, without valspodar 80.4±[…]
  BEI% of 125I-Aβ40 after valspodar pretreatment: 48.1 ±2.3%
P-gp [6]; rifampicin-treated mice
  reduction in BEI% values by valspodar: ~25%
P-gp [6]; rifampicin-treated mice, without valspodar 82.4±[…]
  BEI% of 125I-Aβ40 after valspodar pretreatment: 57.5± 1.1%

## Cn1c(=O)c2c(ncn2C)n(C)c1=O [Caffeine]
MRP1
  effect on brain homogenate's MRP1 expression (western blot): did not alter; also recorded: Insignificant differences
LRP1 [7]
  increase in LRP1 expression in brain microvessels (immunofluorescence): 1.2 fold
P-gp [8]
  increase in P-gp expression in brain microvessels (immunofluorescence): 2.3 fold
LRP1 [2]
  increase in mRNA level of LRP1 (RT-PCR): did not show any effect
[9]
  plasma protein binding: 10–37%
[10]
  body weight observation during treatment: weight loss
LRP1 [4]
  increase in LRP1 level (densitometric analysis of western blot): but not caffeine
RAGE
  effect on microvessels' RAGE expression (western blot): did not alter; also recorded: Insignificant differences
[5]; 3 h after last ip dose (rifampicin 20 mg/kg, caffeine 40 mg/kg daily), n = 12
  Drug concentration Plasma: 20000 ± 5400 ng/mL
[5]; male, C57BL/6, mouse, brain homogenate / plasma, ip
  Kp at 3 h: 0.5
[5]; male, C57BL/6, mouse, ip
  concentration at 3 h: 11800 ± 3600 ng/mL

## RAP: human receptor associated protein, a specific LRP1 inhibitor
LRP1 [11]; caffeine-treated mice, without RAP 80.4 ±[…]
  BEI% of 125I-Aβ40 after RAP pretreatment: 76.9 ±2.5%
LRP1 [11]; control mice
  reduction in BEI% values by RAP: about 33%
LRP1 [11]; rifampicin-treated mice
  reduction in BEI% values by RAP: ~13%
LRP1 [11]; rifampicin-treated mice, without RAP 82.4±[…]
  BEI% of 125I-Aβ40 after RAP pretreatment: 69.7 ±3.3%
